According to US20120116095A1, “GLYCINE TRANSPORTER INHIBITORS” (TAISHO PHARMACEUTICAL C0., LTD., priority 2009, published 2012):
Where two headings read alike, the source gives them in different places.

Experiments:
[1] = target: T1, human type 1 glycine transporter (GlyT1) (Homo sapiens, UniProt P48067); assay: Glycine uptake inhibition experiment ([3H]glycine uptake in T98G cells); assay type: cell-based; conditions: [3H]glycine 250 nM, 15 min, room temperature
T1 construct: Glioma T98G cells endogenously expressing human type 1 glycine transporter (GlyT1) were used; endogenous in cells; host or cells: T98G human glioma cells
T1 sequence (P48067 1-706): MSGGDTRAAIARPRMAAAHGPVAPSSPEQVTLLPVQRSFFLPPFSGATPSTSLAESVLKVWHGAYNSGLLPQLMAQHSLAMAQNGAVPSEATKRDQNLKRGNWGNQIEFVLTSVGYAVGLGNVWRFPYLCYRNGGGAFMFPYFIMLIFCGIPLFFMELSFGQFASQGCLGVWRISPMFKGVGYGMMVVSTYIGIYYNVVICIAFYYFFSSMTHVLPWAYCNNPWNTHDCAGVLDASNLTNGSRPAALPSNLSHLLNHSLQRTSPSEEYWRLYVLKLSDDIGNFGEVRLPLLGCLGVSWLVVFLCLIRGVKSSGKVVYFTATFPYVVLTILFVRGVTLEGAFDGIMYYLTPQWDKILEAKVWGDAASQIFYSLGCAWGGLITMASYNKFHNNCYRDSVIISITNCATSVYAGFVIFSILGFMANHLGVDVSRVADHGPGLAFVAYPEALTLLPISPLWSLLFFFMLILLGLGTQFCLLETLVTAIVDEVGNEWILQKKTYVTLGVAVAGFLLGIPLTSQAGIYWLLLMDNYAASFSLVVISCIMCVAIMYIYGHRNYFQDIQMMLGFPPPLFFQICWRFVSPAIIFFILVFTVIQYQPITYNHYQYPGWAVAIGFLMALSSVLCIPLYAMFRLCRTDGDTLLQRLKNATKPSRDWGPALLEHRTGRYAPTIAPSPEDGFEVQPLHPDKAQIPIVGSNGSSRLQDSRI
Protocol: A glycine uptake experiment was conducted as described in Neuron, 8, 927-935, 1992. Glioma T98G cells endogenously expressing human type 1 glycine transporter (GlyT1) were used. T98G cells were seeded in a 96-well plate at 2.0×10^4 cells/well and cultured overnight in a CO2 incubator. A test compound was dissolved in a 100% DMSO solution and then dissolved in 10 mM HEPES buffer (pH 7.4) containing 150 mM sodium chloride, 1 mM calcium chloride, 5 mM potassium chloride, 1 mM magnesium chloride, 10 mM glucose and 0.2% bovine serum albumin. After removing the cell culture medium, the cells were pre-treated with the test compound for 10 minutes. Subsequently, the test compound and [^3H]glycine (final concentration: 250 nM) were added to the cells and incubated at room temperature for 15 minutes. After the incubation, the extracellular solution was aspirated with a manifold to remove the excess labeled glycine existing outside the cells, and the cells were then lysed with 0.5 M aqueous sodium hydroxide. The amount of glycine uptake was determined by measuring radioactivity in the cell lysate using a liquid scintillation counter. Glycine uptake in the presence of 10 μM ALX5407 was defined as non-specific uptake, and the value calculated by subtracting this non-specific uptake from the total uptake in the absence of 10 μM ALX5407 was defined as specific uptake. Moreover, an inhibition curve was obtained for each test compound at concentrations of […] to calculate the glycine uptake inhibitory activity (IC50 value) of each test substance.
It should be noted that ALX5407 is a HCl salt of N-[(3R)-3-([1,1′-biphenyl]-4-yloxy)-3-(4-fluorophenyl)propyl]-N-methylglycine.

[2] = target: T2, P-glycoprotein (P-gp) (Homo sapiens, UniProt P08183); assay: Test for substrate recognition by P-gp (LLC-GA5-COL300 cells); assay type: in vitro ADME; conditions: 10 μM, Human MDR1-expressing LLC-GA5-COL300 cells, Apical to Basolateral and Basolateral to Apical
T2 construct: expressed in transfected cells; host or cells: LLC-GA5-COL300 (pig kidney LLC-PK1 cells expressing human MDR1)
T2 sequence (P08183 whole entry): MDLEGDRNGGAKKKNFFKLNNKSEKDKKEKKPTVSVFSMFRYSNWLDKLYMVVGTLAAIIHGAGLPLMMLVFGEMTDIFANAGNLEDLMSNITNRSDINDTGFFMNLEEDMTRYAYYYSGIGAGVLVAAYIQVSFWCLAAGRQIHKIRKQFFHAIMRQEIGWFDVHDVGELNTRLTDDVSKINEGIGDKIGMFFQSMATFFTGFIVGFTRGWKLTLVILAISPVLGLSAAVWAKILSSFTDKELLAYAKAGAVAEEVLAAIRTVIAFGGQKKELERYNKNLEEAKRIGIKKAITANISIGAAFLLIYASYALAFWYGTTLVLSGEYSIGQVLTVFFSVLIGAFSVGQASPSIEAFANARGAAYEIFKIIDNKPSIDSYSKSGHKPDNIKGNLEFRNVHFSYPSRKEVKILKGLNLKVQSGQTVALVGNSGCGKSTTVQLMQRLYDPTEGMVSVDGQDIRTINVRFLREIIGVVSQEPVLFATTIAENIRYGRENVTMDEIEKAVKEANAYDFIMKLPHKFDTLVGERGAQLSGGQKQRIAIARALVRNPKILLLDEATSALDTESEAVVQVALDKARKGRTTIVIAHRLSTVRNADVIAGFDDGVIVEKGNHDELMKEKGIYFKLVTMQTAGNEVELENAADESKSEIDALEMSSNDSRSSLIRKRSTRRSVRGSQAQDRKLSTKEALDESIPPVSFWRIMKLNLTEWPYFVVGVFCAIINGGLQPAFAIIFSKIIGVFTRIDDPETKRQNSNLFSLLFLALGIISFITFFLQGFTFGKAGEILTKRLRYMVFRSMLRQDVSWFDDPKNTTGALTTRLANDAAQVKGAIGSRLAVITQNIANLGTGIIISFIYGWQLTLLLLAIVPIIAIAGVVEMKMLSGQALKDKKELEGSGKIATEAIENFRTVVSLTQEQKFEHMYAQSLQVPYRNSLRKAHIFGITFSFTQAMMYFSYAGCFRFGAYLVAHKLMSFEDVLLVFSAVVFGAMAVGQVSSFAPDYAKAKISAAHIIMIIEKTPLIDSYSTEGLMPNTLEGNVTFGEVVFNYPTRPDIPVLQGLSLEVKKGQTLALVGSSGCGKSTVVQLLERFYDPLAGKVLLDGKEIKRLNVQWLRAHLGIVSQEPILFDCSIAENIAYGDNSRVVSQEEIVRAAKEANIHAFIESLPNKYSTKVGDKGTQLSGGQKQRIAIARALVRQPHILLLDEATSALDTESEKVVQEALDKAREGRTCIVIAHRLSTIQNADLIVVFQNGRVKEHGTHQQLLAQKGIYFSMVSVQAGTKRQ
Description: In the case of drugs that act on the central nervous system, it is generally important for such drugs to be transferred from blood into brain for development of their efficacy. In the blood-brain barrier, there is found P-glycoprotein (P-gp), which is a typical member of the efflux transporters that control drug penetration; and P-gp inhibits the penetration of its substrate drugs into the brain. Thus, in developing a drug, recognition performance as a P-gp substrate can be used as an indicator of brain penetration.
A test for substrate recognition by P-gp was conducted as described in J. Pharmacol. Exp. Ther. (1992) Vol. 263, No. 2, 840-845 and J. Biol. Chem. (1992) Vol. 267, No. 34, 24248-24252. Specifically, LLC-GA5-COL300 cells (i.e., a Human MDR1-expressing system originating from a pig kidney-derived cultured renal epithelial cell line, LLC-PK1) were used after being cultured for 4 days on trans wells, and the medium in each well was replaced by Hank's balanced salt solution (HBSS) immediately before use in the test. After a test compound solution (i.e., a DMSO solution of a test compound, which was further diluted with HBSS and adjusted to a final concentration of 10 μM) was added to the Donor side of the LLC-GA5-COL300 cells, aliquots of HBSS were sampled over time from the Acceptor side to determine the test compound concentration in each collected sample by LC-MS/MS.
The membrane permeability coefficient (×10^−6 cm/sec) was calculated by the accumulated amount of the compound into the Acceptor side for both directions, Apical to Basolateral and Basolateral to Apical. and the ratio of these coefficients (Efflux Ratio) was then used to evaluate substrate recognition by P-gp.

[3] = read-out: glycine uptake inhibitory activity (IC50 value)
[4] = read-out: glycine uptake inhibitory activity (IC50 value), bounds

IC50 [1, 3]	IC50 [1, 4]	recognition as a P-gp substrate (Efflux Ratio criteria) [2]	SMILES
–	≥ 100 nM	–	CC(C)N(Cc1ccc(F)c(-c2ccc(OC(F)(F)F)cc2)c1)C(=O)c1ncn(C)n1 [Compound 4]
21.4 nM	–	–	CC(C)N(Cc1ccc(F)c(-c2cccc(OC(F)(F)F)c2)c1)C(=O)c1cn(C)cn1 [Compound 15]
41.5 nM	–	–	COCCN(Cc1ccc(F)c(-c2ccc(OC(F)(F)F)cc2)c1)C(=O)c1cn(C)cn1 [Compound 16]
18.8 nM	–	not to be recognized as a P-gp substrate	CC(C)N(Cc1ccc(F)c(-c2ccc(F)c(F)c2)c1)C(=O)c1cn(C)cn1 [Compound 17]
8.89 nM	–	not to be recognized as a P-gp substrate	CC(C)N(Cc1ccc(F)c(-c2ccc(F)cc2)c1)C(=O)c1cn(C)cn1 [Compound 18]
7.19 nM	–	not to be recognized as a P-gp substrate	CC(C)N(Cc1ccc(F)c(-c2cccc(F)c2)c1)C(=O)c1cn(C)cn1 [Compound 20]
25.4 nM	–	–	COc1ccc(-c2cc(CN(C(=O)c3cn(C)cn3)C(C)C)ccc2F)cc1 [Compound 25]
40 nM	–	–	CC(C)N(Cc1ccc(F)c(-c2ccc(Cl)cc2)c1)C(=O)c1cn(C)cn1 [Compound 26]
–	≥ 100 nM	–	CC(C)N(Cc1ccc(F)c(-c2ccc(C(F)(F)F)cc2)c1)C(=O)c1cn(C)cn1 [Compound 30]
49.4 nM	–	–	CC(C)N(Cc1ccc(F)c(-c2cccc(OC(F)F)c2)c1)C(=O)c1cn(C)cn1 [Compound 34]
48.9 nM	–	–	CC(C)N(Cc1ccc(F)c(-c2ccc(OC(F)F)cc2)c1)C(=O)c1cn(C)cn1 [Compound 35]
35.9 nM	–	–	CCn1cnc(C(=O)N(Cc2ccc(F)c(-c3ccc(OC(F)(F)F)cc3)c2)C(C)C)c1 [Compound 40, 1-Ethyl-N-{[6-fluoro-4′-(trifluoromethoxy)biphenyl-3-yl]methyl}-N-(propan-2-yl)-1H-imidazole-4-carboxamide]
–	> 1000 nM	–	Cc1ccc(CN(C(=O)c2cn(C)cn2)C(C)C)cc1-c1ccc(OC(F)(F)F)cc1 [Compound 46]
–	> 1000 nM	–	Cc1ccc(CN(C(=O)c2cn(C)cn2)C(C)C)cc1-c1ccc(F)cc1 [Compound 47]
–	> 1000 nM	–	CC(C)N(Cc1cc(-c2ccc(OC(F)(F)F)cc2)cc(C(F)(F)F)c1)C(=O)c1cn(C)cn1 [Compound 48]
–	> 1000 nM	–	CC(C)N(Cc1cc(-c2ccc(F)cc2)cc(C(F)(F)F)c1)C(=O)c1cn(C)cn1 [Compound 49]
–	> 1000 nM	–	CC(C)N(Cc1cc(OC(F)(F)F)cc(-c2ccc(F)cc2)c1)C(=O)c1cn(C)cn1 [Compound 50]
–	≥ 100 nM	–	CC(C)N(Cc1ccc(Cl)c(-c2ccc(F)cc2)c1)C(=O)c1cn(C)cn1 [Compound 51]
30.7 nM	–	–	CC(CO)N(Cc1ccc(F)c(-c2ccc(OC(F)(F)F)cc2)c1)C(=O)c1cn(C)cn1 (stereo not drawn) [Compound 52]
–	≥ 100 nM	–	C=C(C)N(Cc1ccc(F)c(-c2ccc(OC(F)(F)F)cc2)c1)C(=O)c1cn(C)cn1 [Compound 53, N-{[6-Fluoro-4′-(trifluoromethoxy)biphenyl-3-yl]methyl}-1-methyl-N-(prop-1-en-2-yl)-1H-imidazole-4-carboxamide]
–	> 1000 nM	not to be recognized as a P-gp substrate	CC(C)N(Cc1ccc(F)c(-c2ccc(OC(F)(F)F)cc2)c1)C(=O)c1c[nH]cn1 [Compound 54]

The next lines start with the compound.

SMILES	IC50 [1, 3]	IC50 [1, 4]	recognition as a P-gp substrate (Efflux Ratio criteria) [2]
COC(=O)c1cccc(-c2cc(CN(C(=O)c3ncn(C)n3)C3CCCCC3)ccc2F)c1 [Compound 2]	12.6 nM	–	–
CC(C)N(Cc1ccc(F)c(-c2cccc(OC(F)(F)F)c2)c1)C(=O)c1ncn(C)n1 [Compound 3]	–	≥ 100 nM	–
CC(C)N(Cc1ccc(F)c(-c2cccc(CO)c2)c1)C(=O)c1ncn(C)n1 [Compound 5]	–	≥ 100 nM	–
Cn1cnc(C(=O)N(Cc2ccc(F)c(-c3cccc(CO)c3)c2)C2CCCCC2)n1 [Compound 6]	14.6 nM	–	–
CC(C)N(Cc1ccc(F)c(-c2cccc(CO)c2)c1)C(=O)c1cn(C)cn1 [Compound 7]	25.9 nM	–	–
Cn1cnc(C(=O)N(Cc2ccc(F)c(-c3cccc(CO)c3)c2)C2CCCCC2)c1 [Compound 8]	11 nM	–	–
CCC(CC)N(Cc1ccc(F)c(-c2cccc(CO)c2)c1)C(=O)c1cn(C)cn1 [Compound 11]	35.1 nM	–	–
Cn1cnc(C(=O)N(Cc2ccc(F)c(-c3cccc(CO)c3)c2)C2CCC2)c1 [Compound 13, N-Cyclobutyl-N-{[6-fluoro-3′-(hydroxymethyl)biphenyl-3-yl]methyl}-1-methyl-1H-imidazole-4-carboxamide]	4.33 nM	–	–
Cn1cnc(C(=O)N(Cc2ccc(F)c(-c3cccc(CO)c3)c2)C2CCCC2)c1 [Compound 14]	2.78 nM	–	–
COc1ccc(-c2cc(CN(C(=O)c3cn(C)cn3)C(C)C)ccc2F)cc1F [Compound 19]	18.6 nM	–	–
CCOc1cccc(-c2cc(CN(C(=O)c3cn(C)cn3)C(C)C)ccc2F)c1 [Compound 21]	13.6 nM	–	–
CC(C)N(Cc1ccc(F)c(-c2ccccc2)c1)C(=O)c1cn(C)cn1 [Compound 22]	11.6 nM	–	not to be recognized as a P-gp substrate
CC(C)N(Cc1ccc(F)c(-c2ccccc2F)c1)C(=O)c1cn(C)cn1 [Compound 23]	21.4 nM	–	–
COc1cccc(-c2cc(CN(C(=O)c3cn(C)cn3)C(C)C)ccc2F)c1 [Compound 24]	14.2 nM	–	not to be recognized as a P-gp substrate
CC(C)N(Cc1ccc(F)c(-c2cc(F)cc(F)c2)c1)C(=O)c1cn(C)cn1 [Compound 28]	22.6 nM	–	–
Cn1cnc(C(=O)N(Cc2ccc(F)c(-c3ccc(F)c(F)c3)c2)C2CCCC2)c1 [Compound 31]	21 nM	–	–
CC(C)CN(Cc1ccc(F)c(-c2ccc(F)c(F)c2)c1)C(=O)c1cn(C)cn1 [Compound 32]	–	≥ 100 nM	–
CC(C)N(Cc1ccc(F)c(-c2cc(F)c(F)c(F)c2)c1)C(=O)c1cn(C)cn1 [Compound 36]	38.2 nM	–	not to be recognized as a P-gp substrate
CC(C)N(Cc1ccc(F)c(-c2ccc(C#N)cc2F)c1)C(=O)c1cn(C)cn1 [Compound 37]	–	≥ 100 nM	–
CC(C)N(Cc1ccc(F)c(-c2cc(F)cc(C#N)c2)c1)C(=O)c1cn(C)cn1 [Compound 39]	48.5 nM	–	–
CC(C)N(Cc1ccc(F)c(-c2cc(F)c(F)c(F)c2)c1)C(=O)c1c[nH]cn1 [Compound 41]	–	> 1000 nM	–
CCn1cnc(C(=O)N(Cc2ccc(F)c(-c3cc(F)c(F)c(F)c3)c2)C(C)C)c1 [Compound 42]	48.3 nM	–	–
COc1ccc(CN(C(=O)c2cn(C)cn2)C(C)C)cc1-c1ccc(F)cc1 [Compound 43]	–	> 1000 nM	–
